Measurements taken from patent US7132420B2, “Aspartic protease inhibitors” (The United States of America as represented by the …, priority 1999, dated 2006).
Like-named read-outs stand apart in the source and are kept apart here.

Experiments:
[1] = target: HIV-1 protease (Human immunodeficiency virus type 1 group M subtype B, UniProt P04585); assay: HIV protease assay (Ki); assay type: biochemical; details: for Ki: read-out: HIV-1 Ki
From the text: (§1) This example illustrates the HIV-1 protease inhibition activity (Ki), HIV-1 antiviral data (EC50), and the toxicity against normal cells (IC50), for particular compounds of formula (I). The HIV protease assay was done according to the protocol described in Kageyama et al, Antimicrob. Agents Chemother., 37, 272 (1993). The HIV antiviral assay was done according to the protocol described in Weislow et al., J. National Cancer Inst. 81, 577 (1989).
(§2) The HIV protease assay was done according to the protocol described in Example 35. The plasmepsin II assay was done according to the protocol used in Silva et al., Proc. Nat. Acad. Sci. USA, 93, pp. 10034–10039, September 1996 (Biochemstry). The cathepsin D assay was done according to the protocol described in Gulnik et al., FEBS Letters, 413, 379–384 (1997). The compounds illustrated in Table 2 are of the general formula (II), as described in Example 35.

[2] = target: 84V mutant HIV-1 protease (Human immunodeficiency virus type 1 group M subtype B, UniProt P04585, I572V); assay: HIV protease assay, 84V mutant (Ki); assay type: biochemical
From the text: as §1

[3] = target: 32I mutant HIV-1 protease (Human immunodeficiency virus type 1 group M subtype B, UniProt P04585, V520I); assay: HIV protease assay, 32I mutant (Ki); assay type: biochemical; details: Table 1; read-out: 321 Ki
From the text: as §1

[4] = target: 82F/84V mutant HIV-1 protease (Human immunodeficiency virus type 1 group M subtype B, UniProt P04585, I572V/V570F); assay type: biochemical
From the text: as §1

[5] = system: HIV-1; assay: HIV antiviral assay (EC50); assay type: cell-based
From the text: The HIV protease assay was done according to the protocol described in Kageyama et al, Antimicrob. Agents Chemother., 37, 272 (1993). The HIV antiviral assay was done according to the protocol described in Weislow et al., J. National Cancer Inst. 81, 577 (1989).

[6] = system: normal cells; assay: toxicity against normal cells (IC50); assay type: cell-based
From the text: as §1

[7] = target: cathepsin D (Homo sapiens, UniProt P07339); assay: cathepsin D assay (Ki); assay type: biochemical; details: Table 2; read-out: Cath D Ki
Sequence of cathepsin D (P07339 65-412): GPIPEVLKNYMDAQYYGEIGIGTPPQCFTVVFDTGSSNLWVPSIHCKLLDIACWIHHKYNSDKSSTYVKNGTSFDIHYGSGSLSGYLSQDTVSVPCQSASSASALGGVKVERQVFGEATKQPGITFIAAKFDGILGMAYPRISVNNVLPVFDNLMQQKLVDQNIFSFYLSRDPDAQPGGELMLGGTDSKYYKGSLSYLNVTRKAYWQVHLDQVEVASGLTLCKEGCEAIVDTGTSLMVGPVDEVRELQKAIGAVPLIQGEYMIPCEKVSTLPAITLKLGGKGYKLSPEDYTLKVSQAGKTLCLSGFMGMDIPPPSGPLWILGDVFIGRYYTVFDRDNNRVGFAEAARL
From the text: as §2

[8] = target: plasmepsin II (Plasmodium falciparum, UniProt P46925); assay: biochemical; assay type: biochemical; details: for Ki: Table 2, read-out: Pls II Ki
Sequence of plasmepsin II (P46925 125-453): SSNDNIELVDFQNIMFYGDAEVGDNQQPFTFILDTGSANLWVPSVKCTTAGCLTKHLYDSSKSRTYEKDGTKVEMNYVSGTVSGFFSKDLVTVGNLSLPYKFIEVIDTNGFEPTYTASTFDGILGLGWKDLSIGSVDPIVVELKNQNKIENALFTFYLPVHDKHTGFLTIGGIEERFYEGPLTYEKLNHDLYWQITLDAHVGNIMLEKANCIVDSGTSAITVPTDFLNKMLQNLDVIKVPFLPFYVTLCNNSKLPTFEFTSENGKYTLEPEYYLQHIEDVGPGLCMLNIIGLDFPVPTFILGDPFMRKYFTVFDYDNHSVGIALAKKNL
From the text: as §2

[9] = Rat IV pharmacokinetics; assay type: in vivo, rats; details: IV about 5 mg/kg
Protocol: (§3) This example illustrates the oral bioavailability of various compounds of the present invention. […] Drug concentrations were measured by centrifuging plasma samples, extracting the supernatants with tert-butyl methyl ether, and analyzing the extracts by HPLC. Oral bioavailability (% F) was calculated on the basis of the ratio of the amount of drug absorbed systemically from oral administration (AUC p.o.) relative to the amount of systemic drug obtained from intravenous administration (AUC iv).

[10] = Rat P.O. pharmacokinetics and oral bioavailability; assay type: in vivo, rats; details: for Rat P.O. % F (%): AUC p.o. relative to AUC iv; for Cmax / Rat P.O. tmax: P.O. about 37 mg/kg, PEG 300 vehicle; for Cmax when administered orally, in words: oral
Protocol: as §3

[11] = IV-PO crossover oral bioavailability studies; assay type: in vivo; details: two Sprague-Dawley rats; IV 7 and 3 mg/kg (DMSO), oral 22 and 50 mg/kg (PEG300)
Protocol: Compound (19) was tested in IV-PO crossover studies in two Sprague-Dawley rats. For the IV portion of the studies, compound (19) was given at doses of 7 and 3 mg/kg, as a short infusion (30–60 seconds) via a jugular vein catheter using a vehicle of DMSO and a dose volume of 1 ml/kg. Heparinized blood samples were collected at close intervals through 3 hours, the plasma was separated, and plasma concentrations of compound (19) were determined by HPLC. One to two weeks later, the same rats were given doses of 22 and 50 mg/kg by gastric intubation. The vehicle was PEG300 and the dose volume was 10 ml/kg. Blood samples were collected at regular intervals through 24 hours, and analyzed as above. The oral bioavailability in both of these studies was 100%. Based on the excellent oral bioavailability of compound (19), it is expected that compound (19) will be an effective inhibitor of systemic aspartic protease when administered orally. Other compounds of the present invention also are expected to have-good oral bioavailability.

[12] = comparison of Table 2 Ki values

Structure (SMILES) | Ki ([1]; Table 1) [nM] | Ki ([1]; Table 3) [nM] | Ki ([4]; Table 1) [nM] | EC50 ([5]; Table 1) [nM] | EC50 ([5]; Table 3) [nM] | Rat IV CL [9] [mL/min/kg] | Rat IV t1/2 [9] [min] | Cmax [10] [nM] | Rat P.O. tmax [10] [min] | IC50 ([6]; Table 1) [nM] | further results
Cc1ccccc1C(=O)N[C@@H](Cc1ccccc1)[C@@H](O)C[C@H](CC(C)C)NC(=O)OC(C)(C)C [(38)] | – | – | – | – | – | – | – | – | – | – | Ki ([1]; Table 1, in nM): 2.1 nM; Ki ([2]; Table 1, in nM): 12 nM
Cc1cccc(C)c1OCC(=O)N[C@@H](Cc1ccccc1)[C@@H](O)C[C@H](CC(C)C)NC(=O)[C@H](C(C)C)N1CCCNC1=O [(16)] | 0.007 | 0.008 | 0.137 | 23 | 23 | 9.8 | 27 | 269 | 10 to 15 | – | inhibitory activity against HIV-1 protease, in words [1]: excellent potency; Ki ([1]; Table 2): 0.007 nM; potency relative to compound (24) against HIV-1 protease [1, 12]: about ten-fold more potent than compound (24); Ki ([2]; Table 1): 0.091 nM; Ki [3]: 0.031 nM; EC50 ([5]; Table 2): 23 nM; IC50 ([6]; Table 2): > 100000 nM; Ki [7]: 3300 nM; Ki [8]: 357 nM; potency relative to compound (24) against plasmepsin II [8, 12]: about ten-fold more potent than compound (24); Rat P.O. % F (%) [10]: 1%
CC(C)[C@H](NC(=O)OCc1ccccn1)C(=O)N[C@@H](Cc1ccccc1)C[C@H](O)[C@H](Cc1ccccc1)NC(=O)[C@@H](NC(=O)OCc1ccccn1)C(C)C [(22), reference compound] | 0.015 | – | 0.271 | – | – | – | – | – | – | – | Ki ([2]; Table 1): 0.21 nM
Cc1cccc(C)c1OCC(=O)N[C@@H](Cc1ccccc1)[C@@H](O)C[C@H](CC(C)C)NC(=O)[C@@H](NC(=O)N1CCOCC1)C(C)C [(45), (2S,3S,5S)-2-[N-[2-(2,6-dimethylphenoxy)acetyl]amino]-5-[N-[[N′-(morpholin-4)carbonyl]valinyl]amino]-3-hydroxy-7-methyl-1-phenyloctane] | 0.05 | 0.05 | 0.437 | 170 | 170 | 67.5 | 20 | 573 | 16 | > 100000 | Rat P.O. % F (%) [10]: 29%
CC(C)C[C@@H](C[C@H](O)[C@H](Cc1ccccc1)NC(=O)OCc1cncs1)NC(=O)[C@H](C(C)C)N1CCCNC1=O [Compound (19), (2S,3S,5S)-5-[N-[[3-methyl-2S-(2-oxo-tetrahydropyrimidin-1-yl)]butyryl]amino]-2-[N-[(thiazol-5-yl-methoxy)carbonyl]amino]-3-hydroxy-7-methyl-1-phenyloctane] | 0.07 ± 0.01 | 0.07 | – | 500 | 500 | 25 | 18 | 24800 | 120 to 360 | > 100000 | Cmax when administered orally, in words [10]: micromolar; oral bioavailability [11]: 100%
CC(C)C[C@@H](C[C@H](O)[C@H](Cc1ccccc1)NC(=O)c1ccccc1NC(=O)OCc1ccccn1)NC(=O)c1ccccc1NC(=O)OCc1ccccn1 [(21)] | 0.14 | – | – | 127 | – | – | – | – | – | > 20000 | Ki ([2]; Table 1, in nM): 2.7 nM
CCOC(=O)N[C@H](C(=O)N[C@@H](CC(C)C)C[C@H](O)[C@H](Cc1ccccc1)NC(=O)COc1c(C)cccc1C)C(C)C [(46)] | 0.054 | – | 0.671 | 160 | – | – | – | – | – | > 100000 | –
Cc1cccc(C)c1OCC(=O)N[C@@H](Cc1ccccc1)[C@@H](O)C[C@H](CC(C)C)NC(=O)O[C@H]1CCOC1 [(26)] | 0.06 | – | – | 700 | – | – | – | – | – | – | Ki ([1]; Table 2): 0.06 nM; Ki ([4]; Table 1, in nM): 2.7 nM; EC50 ([5]; Table 2): 700 nM; IC50 ([6]; Table 2): > 100000 nM; Ki [7]: 3.5 nM; Ki [8]: 55 nM
CC(C)C[C@@H](C[C@H](O)[C@H](Cc1ccccc1)NC(=O)O[C@H]1CCOC1)NC(=O)[C@H](C(C)C)N1CCCNC1=O [(35), (2S,3S,5S)-2-[N-(3S-terahydrofuranyloxycarbonyl]amino]-5-[N-[[3-methyl-2S-(2-oxo-tetrahydropyrimidin-1-yl)]butyryl]amino]-3-hydroxy-7-methyl-1-phenyloctane] | 0.094 ± 0.024 | – | – | 700 | – | – | – | – | – | > 100000 | Ki ([4]; Table 1, in nM): 3.2 nM
Cc1cccc(C)c1OCC(=O)N[C@@H](Cc1ccccc1)[C@@H](O)C[C@H](CC(C)C)NC(=O)[C@@H](NC(=O)OCc1ccccn1)C(C)C [(30), (2S,3S,5S)-2-[N-[2-(2,6-dimethylphenoxy)acetyl]amino]-5-[N-[N′-(pyridine-2-methoxycarbonyl)valinyl]amino]-3-hydroxy-7-methyl-1-phenyloctane] | 0.017 | – | 0.41 | 83 | – | – | – | – | – | > 100000 | Ki ([1]; Table 2): 0.017 nM; EC50 ([5]; Table 2): 83 nM; IC50 ([6]; Table 2): > 100000 nM; Ki [7]: 3300 nM; Ki [8]: 2350 nM
Cc1cccc(C)c1OCC(=O)N[C@@H](CC(C)C)C[C@H](O)[C@H](Cc1ccccc1)NC(=O)[C@H](C(C)C)N1CCCNC1=O [(43)] | 0.176 | 0.176 | – | 540 | 540 | 36.6 | 28 | 2100 | 120 | > 100000 | Cmax when administered orally, in words [10]: micromolar
